Earlier results in US7767688B2, “Combination of pyrimidylaminobenzamide compounds and imatinib for treating gastrointestinal stromal tumours” (Novartis AG, priority 2005, dated 2010).

Target: PDGFRA V561D juxtamembrane domain mutation (Homo sapiens, UniProt P16234, V561D)
Conditions: V561D compared with D842V kinase domain mutation

Chain of PDGFRA V561D juxtamembrane domain mutation (P16234 24-1089 V561D): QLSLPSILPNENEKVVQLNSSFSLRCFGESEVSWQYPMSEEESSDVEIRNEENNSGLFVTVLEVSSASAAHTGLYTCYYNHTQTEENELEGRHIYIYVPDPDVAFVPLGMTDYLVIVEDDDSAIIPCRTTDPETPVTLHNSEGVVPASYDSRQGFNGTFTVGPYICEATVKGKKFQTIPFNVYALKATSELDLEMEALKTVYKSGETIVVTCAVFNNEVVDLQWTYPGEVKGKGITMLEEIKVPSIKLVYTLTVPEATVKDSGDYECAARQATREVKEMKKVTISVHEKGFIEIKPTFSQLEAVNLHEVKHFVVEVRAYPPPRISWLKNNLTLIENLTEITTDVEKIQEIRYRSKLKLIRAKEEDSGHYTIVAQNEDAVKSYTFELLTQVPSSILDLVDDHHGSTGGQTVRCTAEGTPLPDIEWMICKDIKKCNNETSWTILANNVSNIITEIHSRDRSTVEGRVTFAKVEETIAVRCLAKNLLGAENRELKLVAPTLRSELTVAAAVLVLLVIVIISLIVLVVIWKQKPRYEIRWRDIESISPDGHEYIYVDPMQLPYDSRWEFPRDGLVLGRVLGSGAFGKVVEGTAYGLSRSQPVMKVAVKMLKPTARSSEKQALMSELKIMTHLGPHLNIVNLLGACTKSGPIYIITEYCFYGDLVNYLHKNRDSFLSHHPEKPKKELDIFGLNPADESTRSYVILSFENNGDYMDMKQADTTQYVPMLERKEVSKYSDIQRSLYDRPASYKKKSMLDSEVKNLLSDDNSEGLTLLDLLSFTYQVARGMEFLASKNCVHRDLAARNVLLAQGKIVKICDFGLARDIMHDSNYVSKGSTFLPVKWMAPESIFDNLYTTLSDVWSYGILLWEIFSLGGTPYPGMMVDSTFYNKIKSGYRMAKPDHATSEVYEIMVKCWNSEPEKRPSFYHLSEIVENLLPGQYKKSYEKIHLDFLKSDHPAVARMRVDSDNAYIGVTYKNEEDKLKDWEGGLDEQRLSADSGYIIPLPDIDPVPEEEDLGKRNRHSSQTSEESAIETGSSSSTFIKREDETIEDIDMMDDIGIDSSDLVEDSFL

Cc1ccc(NC(=O)c2ccc(CN3CCN(C)CC3)cc2)cc1Nc1nccc(-c2cccnc2)n1 [imatinib]
Sensitivity to imatinib by location of PDGFRA mutation: more sensitive to imatinib than the D842V kinase domain mutation
